Test results published in patent US20210107953A1, “ACTIVE POLYPEPTIDE COMPOUND” (SHAANXI MICOT TECHNOLOGY LIMITED COMPANY, priority 2019, published 2021).

What was measured:
[1] = tested on: retinoic acid-induced osteoporosis rats; test: CT detection of bone microstructure of thigh bone in retinoic acid-induced osteoporosis rats; format: in vivo, SD rats; details: RA-induced osteoporosis rats, 12 w
Protocol: The data were represented by mean value±standard error. After the experiment was completed, thigh bone on the right side of rats were collected, and subjected to CT detection, and […] (BV/TV), the number of trabeculae (TbN) and trabeculae spacing (TbSp) were calculated, and the results were shown in Table 4. An example was selected from each of Control group, Model group, abaloptide group, 20 μg/kg dosage group of Example 1, 20 μg/kg dosage group of Example 2 and 20 μg/kg dosage group of Example 5, and the scanned figures by micron X-ray 3D imaging system of trochlea of their thigh bone were shown in FIG. 1.

[2] = tested on: retinoic acid-induced osteoporosis rats; test: Three-point mechanical test of thigh bone in retinoic acid-induced osteoporosis rats; format: in vivo, SD rats; details: 12 w; for Peak load of three-point mechanics (thigh bone): RA-induced osteoporosis rats
Protocol: Experimental method: SD rats were administered by gavage to induce a rat osteoporosis model. After model establishment, the rats were randomly grouped according to bone mineral densities of thigh bone: (1) vehicle group (Control group): normal saline was subcutaneously administered in an equal volume to the test compound, and soybean oil was administered by gavage in an equal volume to retinoic acid; (2) Model group: normal saline of the same volume was subcutaneously administered; and administered with retinoic acid (RA) by gavage every other day to maintain osteoporosis state; (3) 20 μg dosage group of positive drug abaloptide (Aba-20): 10 μg/kg abaloptide was subcutaneously administered, and retinoic acid was administered by gavage every other day. Administration groups of three dosages were set for each test compound. −10 μg/kg dosage group of the test compound: 10 μg/kg test compound was subcutaneously administered, and retinoic acid was administered by gavage every other day. −20 μg/kg dosage group of the test compound: 20 μg/kg test compound was subcutaneously administered, and retinoic acid was administered by gavage every other day. −40 μg/kg dosage group of the test compound: 40 μg/kg test compound was subcutaneously administered, and retinoic acid was administered by gavage every other day. The administration was carried out 5 times a week, with normal saline as the diluent of test drug, and the administration successively lasted for 12 weeks. The induction dosage of retinoic acid was about 80 mg/kg and the maintenance dosage after model establishment was about 30 mg/Kg, and solvent of inducing agent was soybean oil. […] The thigh bone on the left was subjected to three-point bending test, and the thigh bone on the right was subjected to CT scan and was used to prepare a pathological section. Statistical analysis of data: the data were treated with SPSS 20 software. The data in line with normality test were subjected to one-way analysis of variance; and the data not in line with normality test were subjected to rank sum test. The data were represented by mean value±standard error.

[3] = tested on: ovary removed SD rats (OVX induced rat osteoporosis model); test: Bone mineral density (DXA) in ovariectomy-induced osteoporosis rats; format: in vivo; details: for 0 w Bone mineral density lumbar vertebra / 0 w Bone mineral density thigh bone: 0 w (before administration, baseline); for 25 w Bone mineral density lumbar vertebra / 25 w Bone mineral density thigh bone / 0-25 w percentage of change % lumbar vertebra (bone mineral density) / 0-25 w percentage of change % thigh bone (bone mineral density): 5 times a week; for 0-25 w percentage of change % lumbar vertebra (bone mineral density) / 0-25 w percentage of change % thigh bone (bone mineral density): 25 w vs before administration
Excerpt: The animals had free access to water. […] 1) Bone mineral density (BMD) was detected with a dual-energy X-ray bone densitometry (DXA) before model establishment (−13 w), before administration (0 w), and 6 w, 12 w, 25 w, 37 w and 49 w after administration. […] The data were represented by mean value±standard error. Percentage of bone mineral density change=(bone mineral density at the detection time point−bone density before administration)/bone density before administration*100%

[4] = 5 μg/kg subcutaneous, listed as abaloptide

abaloptide [reference compound]
BV/TV (CT, thigh bone) ([1]; 20 μg/kg subcutaneous): 0.28
TbN, number of trabeculae (CT, thigh bone) ([1]; 20 μg/kg subcutaneous): 3.4 mm^−1
TbSp, trabeculae spacing (CT, thigh bone) ([1]; 20 μg/kg subcutaneous): 0.22 mm
peak load of thigh bone compared with Model group ([2]; 20 μg/kg dosage group): did not significantly increase
Peak load of three-point mechanics (thigh bone) ([2]; 20 μg/kg subcutaneous): 119.57 N
0 w Bone mineral density lumbar vertebra ([3]; 5 μg/kg group): 0.24 ± 0 g/cm^2
0 w Bone mineral density thigh bone ([3]; 5 μg/kg group): 0.23 ± 0 g/cm^2
25 w Bone mineral density lumbar vertebra ([3]; 5 μg/kg subcutaneous): 0.3 ± 0 g/cm^2
25 w Bone mineral density thigh bone ([3]; 5 μg/kg subcutaneous): 0.3 ± 0 g/cm^2
0-25 w percentage of change % lumbar vertebra (bone mineral density) ([3]; 5 μg/kg subcutaneous): 21.66 ± 2.12 %
0-25 w percentage of change % thigh bone (bone mineral density) ([3]; 5 μg/kg subcutaneous): 30.28 ± 2 %
0-25 w percentage of change % lumbar vertebra (bone mineral density) [3, 4]: 21.66±2.12%
0-25 w percentage of change % thigh bone (bone mineral density) [3, 4]: 30.28±2%

Ala-Val-Ser-Glu-His-Gln-Leu-Leu-His-Asp-Lys-Gly-Lys-Ser-Ile-Gln-Asp-Leu-Arg-Arg-Arg-Glu-Leu-Leu-Glu-Lys-Leu-Leu-Ala-Lys-Leu-His-Thr-Ala-Tyr-Arg-Gly-Phe-Gly-Gly (AVSEHQLLHDKGKSIQDLRRRELLEKLLAKLHTAYRGFGG; The sequence is synthesized) [Example 3]
BV/TV (CT, thigh bone) ([1]; 10 μg/kg subcutaneous): 0.33
TbN, number of trabeculae (CT, thigh bone) ([1]; 10 μg/kg subcutaneous): 4.17 mm^−1
TbSp, trabeculae spacing (CT, thigh bone) ([1]; 10 μg/kg subcutaneous): 0.20 mm
BV/TV (CT, thigh bone) ([1]; 20 μg/kg subcutaneous): 0.30
TbN, number of trabeculae (CT, thigh bone) ([1]; 20 μg/kg subcutaneous): 4.21 mm^−1
TbSp, trabeculae spacing (CT, thigh bone) ([1]; 20 μg/kg subcutaneous): 0.17 mm
BV/TV (CT, thigh bone) ([1]; 40 μg/kg subcutaneous): 0.39
TbN, number of trabeculae (CT, thigh bone) ([1]; 40 μg/kg subcutaneous): 4.22 mm^−1
TbSp, trabeculae spacing (CT, thigh bone) ([1]; 40 μg/kg subcutaneous): 0.15 mm
Peak load of three-point mechanics (thigh bone) ([2]; 10 μg/kg subcutaneous): 97.65 N
Peak load of three-point mechanics (thigh bone) ([2]; 20 μg/kg subcutaneous): 126.54 N
Peak load of three-point mechanics (thigh bone) ([2]; 40 μg/kg subcutaneous): 131.74 N
0 w Bone mineral density lumbar vertebra ([3]; 2.5 μg/kg group): 0.24 ± 0 g/cm^2
0 w Bone mineral density thigh bone ([3]; 2.5 μg/kg group): 0.23 ± 0 g/cm^2
25 w Bone mineral density lumbar vertebra ([3]; 2.5 μg/kg subcutaneous): 0.27 ± 0 g/cm^2
25 w Bone mineral density thigh bone ([3]; 2.5 μg/kg subcutaneous): 0.26 ± 0 g/cm^2
0-25 w percentage of change % lumbar vertebra (bone mineral density) ([3]; 2.5 μg/kg subcutaneous): 12.4 ± 2.2 %
0-25 w percentage of change % thigh bone (bone mineral density) ([3]; 2.5 μg/kg subcutaneous): 14.03 ± 1.81 %
0 w Bone mineral density lumbar vertebra ([3]; 5 μg/kg group): 0.24 ± 0 g/cm^2
0 w Bone mineral density thigh bone ([3]; 5 μg/kg group): 0.23 ± 0 g/cm^2
25 w Bone mineral density lumbar vertebra ([3]; 5 μg/kg subcutaneous): 0.29 ± 0.01 g/cm^2
25 w Bone mineral density thigh bone ([3]; 5 μg/kg subcutaneous): 0.29 ± 0.02 g/cm^2
0-25 w percentage of change % lumbar vertebra (bone mineral density) ([3]; 5 μg/kg subcutaneous): 20.41 ± 2.56 %
0-25 w percentage of change % thigh bone (bone mineral density) ([3]; 5 μg/kg subcutaneous): 27.19 ± 1.33 %
0 w Bone mineral density lumbar vertebra ([3]; 10 μg/kg group): 0.24 ± 0.01 g/cm^2
0 w Bone mineral density thigh bone ([3]; 10 μg/kg group): 0.23 ± 0 g/cm^2
25 w Bone mineral density lumbar vertebra ([3]; 10 μg/kg subcutaneous): 0.29 ± 0.01 g/cm^2
25 w Bone mineral density thigh bone ([3]; 10 μg/kg subcutaneous): 0.29 ± 0 g/cm^2
0-25 w percentage of change % lumbar vertebra (bone mineral density) ([3]; 10 μg/kg subcutaneous): 22.46 ± 2.25 %
0-25 w percentage of change % thigh bone (bone mineral density) ([3]; 10 μg/kg subcutaneous): 28.7 ± 1.6 %
